# In patent publication US9426996B2, “Use of benzoxaboroles as volatile antimicrobial agents on meats, plants, or plant parts” (AgroFresh Inc., priority 2013, dated 2016):
# System: Botrytis cinerea
# Assay: in vitro inhibition assay for volatile antimicrobial compounds (12-well PDA plates)
# Assay type: cell-based
# Details: 14 days at 4° C.; for lowest rate with 100% control of Botrytis cinerea: in vitro, volatile
# Experimental: 12-Well (7 milliliter (mL volume per well) microtiter plates are used for the in vitro inhibition assay for volatile antimicrobial compounds. A 3-mL volume of full-strength Potato Dextrose Agar (PDA) is added to each well. After cooling, 1 microliter (μL) of 1×10^6 per mL Botrytis cinerea spore suspension is spot pipetted to the center of the agar. For the first experiment, inoculated plates are allowed to germinate for 5 days at 4° C. For the second experiment, plates are inoculated immediately prior to volatile fungicide treatment. Small Whatman #1 filter disks (Cat. No. 1001-0155) are placed, in duplicate, on the underside of a polyethylene PCR plate sealing film.
# The acetone is permitted to evaporate for 5 minutes. The headspace around the Botrytis cinerea inoculum is then sealed inside the well by the film with the adhering disk containing the fungicide. Plates are inverted, placed over the treated disks and sealed to prevent any of the chemical from flaking from the disk and falling onto the inoculated agar. After 14 days of storage at 4° C., cultures are evaluated for percent growth relative to control. Regardless of whether the spores had germinated for 5 days, or if the treatment commenced soon after inoculation of the plates (˜15 minutes); there is 100% control of the fungal pathogen down to 0.005 mg.
# A total of 14 antimicrobial compounds are tested using the in vitro inhibition assay described in Example 1. All 14 compounds are applied to the Whatman disks, in duplicate, in a dose dependent manner (0.31 to 0.0006 mg/disk). […] Other compounds, such as Compound C, Compound D, and Compound E conferred 100% control down to 0.023, 0.04, and 0.08 mg/disk, respectively. Results of nine compounds are summarized in Table 2, where the other five compounds show no detected activity in the ranges tested. […]
Structure (SMILES),Botrytis inhibition % (in vitro) (0.0006 mg per disk),Botrytis inhibition % (in vitro) (0.001 mg per disk),Botrytis inhibition % (in vitro) (0.0024 mg per disk),Botrytis inhibition % (in vitro) (0.005 mg per disk),Botrytis inhibition % (in vitro) (0.01 mg per disk),Botrytis inhibition % (in vitro) (0.023 mg per disk),Botrytis inhibition % (in vitro) (0.04 mg per disk),Botrytis inhibition % (in vitro) (0.08 mg per disk),Botrytis inhibition % (in vitro) (0.16 mg per disk),Botrytis inhibition % (in vitro) (0.31 mg per disk),lowest rate with 100% control of Botrytis cinerea
COc1cccc2c1B(O)OC2 [K],0%,0%,0%,0%,0%,0%,0%,5%,29%,48%,
Fc1ccc2c(c1)COB2c1ccsc1 [Compound D],0%,0%,15%,38%,70%,80%,100%,100%,100%,100%,0.04 mg/disk
OB1OCc2cc(C(F)(F)F)ccc21 [H],0%,0%,0%,0%,3%,18%,38%,55%,80%,85%,
Fc1ccc2c(c1)COB2/C=C/c1ccccc1 [Compound E],13%,13%,28%,38%,69%,79%,79%,100%,100%,100%,0.08 mg/disk
FC(F)(F)c1ccc2c(c1)COB2c1ccccc1 [F],0%,0%,0%,8%,8%,10%,18%,40%,53%,70%,
FC(F)(F)c1ccc2c(c1)COB2c1ccsc1 [G],0%,0%,0%,0%,0%,3%,13%,43%,78%,100%,
Fc1ccc2c(c1)COB2c1ccccc1 [Compound C],0%,15%,43%,63%,83%,100%,100%,100%,100%,100%,0.023 mg/disk
OB1OCCc2ccccc21 [J],0%,0%,0%,0%,0%,0%,5%,8%,13%,50%,
